Test results reported in ChEMBL document CHEMBL3822370, “Identification and Development of 2,3-Dihydropyrrolo[1,2-a]quinazolin-5(1H)-one Inhibitors Targeting Bromodomains within the Switch/Sucrose Nonfermenting Complex” (J Med Chem, 2016).
The source made the active and inactive calls. No cut-off for these calls is given here.

How the values were obtained:
[1] = molecular target: SWI/SNF-related matrix-associated actin-dependent regulator of chromatin subfamily A member 2 (Homo sapiens) (UniProt P51531); assay: Inhibition of GFP-fused N-terminal full length human recombinant Wild type SMARCA2 transfected in human U2OS cells assessed as displacement of SMARCA2 from chromatin by measuring FRAP recovery time at 1 to 5 uM by laser scanning inverted microscopy relative to control; format: cell-based
[2] = molecular target: SWI/SNF-related matrix-associated actin-dependent regulator of chromatin subfamily A member 2 (Homo sapiens) (UniProt P51531); assay: Binding affinity to His6-tagged human recombinant SMARCA2B bromodomain expressed in Escherichia coli BL21(DE3)-R3-pRARE2 cells assessed as change in melting temperature at 10 uM by SyproOrange dye based DSF thermal shift assay
Protein polybromo-1 [3] = molecular target: T1, Protein polybromo-1 (Homo sapiens, UniProt Q86U86)
Description: Binding affinity to His6-tagged human recombinant PB1 bromodomain isoform 5 expressed in Escherichia coli BL21(DE3)-R3-pRARE2 cells assessed as change in melting temperature at 10 uM by SyproOrange dye based DSF thermal shift assay

[4] = molecular target: T2, SWI/SNF-related matrix-associated actin-dependent regulator of chromatin subfamily A member 4 (Homo sapiens, UniProt P51532); assay: biochemical
[5] = molecular target: Bromodomain-containing protein 4 (Homo sapiens) (UniProt O60885); assay: Binding affinity to His6-tagged human recombinant BRD4 bromodomain 1 expressed in Escherichia coli BL21(DE3)-R3-pRARE2 cells assessed as change in melting temperature at 10 uM by SyproOrange dye based DSF thermal shift assay
Protein polybromo-1 [6] = molecular target: T1, Protein polybromo-1; remark: listed apart in the source
Description: Binding affinity to His6-tagged human recombinant PB1 bromodomain isoform 3 expressed in Escherichia coli BL21(DE3)-R3-pRARE2 cells assessed as change in melting temperature at 10 uM by SyproOrange dye based DSF thermal shift assay

[7] = molecular target: SWI/SNF-related matrix-associated actin-dependent regulator of chromatin subfamily A member 2 (Homo sapiens) (UniProt P51531); assay: Binding affinity to His6-tagged human recombinant SMARCA2A bromodomain expressed in Escherichia coli BL21(DE3)-R3-pRARE2 cells assessed as change in melting temperature at 10 uM by SyproOrange dye based DSF thermal shift assay
[8] = Solubility of the compound in DMSO; format: physicochemical
Protein polybromo-1 [9] = molecular target: T1, Protein polybromo-1; remark: listed apart in the source
Description: Binding affinity to His6-tagged human recombinant PB1 bromodomain 4 expressed in Escherichia coli BL21(DE3)-R3-pRARE2 cells assessed as change in melting temperature at 10 uM by SyproOrange dye based DSF thermal shift assay

Protein polybromo-1 [10] = molecular target: T1, Protein polybromo-1; assay: Binding affinity to His6-tagged human recombinant PB1 bromodomain isoform 5 expressed in Escherichia coli BL21(DE3)-R3-pRARE2 cells by VP-ITC microcalorimetry
Protein polybromo-1 [11] = molecular target: T1, Protein polybromo-1; remark: listed apart in the source
Description: Binding affinity to His6-tagged human recombinant PB1 bromodomain isoform 2 expressed in Escherichia coli BL21(DE3)-R3-pRARE2 cells assessed as change in melting temperature at 10 uM by SyproOrange dye based DSF thermal shift assay

[12] = molecular target: T3, E3 ubiquitin-protein ligase TRIM33 (Homo sapiens) (UniProt Q9UPN9); assay: Binding affinity to His6-tagged human recombinant TRIM33B bromodomain expressed in Escherichia coli BL21(DE3)-R3-pRARE2 cells assessed as change in melting temperature at 10 uM by SyproOrange dye based DSF thermal shift assay
T3 sequence (whole entry): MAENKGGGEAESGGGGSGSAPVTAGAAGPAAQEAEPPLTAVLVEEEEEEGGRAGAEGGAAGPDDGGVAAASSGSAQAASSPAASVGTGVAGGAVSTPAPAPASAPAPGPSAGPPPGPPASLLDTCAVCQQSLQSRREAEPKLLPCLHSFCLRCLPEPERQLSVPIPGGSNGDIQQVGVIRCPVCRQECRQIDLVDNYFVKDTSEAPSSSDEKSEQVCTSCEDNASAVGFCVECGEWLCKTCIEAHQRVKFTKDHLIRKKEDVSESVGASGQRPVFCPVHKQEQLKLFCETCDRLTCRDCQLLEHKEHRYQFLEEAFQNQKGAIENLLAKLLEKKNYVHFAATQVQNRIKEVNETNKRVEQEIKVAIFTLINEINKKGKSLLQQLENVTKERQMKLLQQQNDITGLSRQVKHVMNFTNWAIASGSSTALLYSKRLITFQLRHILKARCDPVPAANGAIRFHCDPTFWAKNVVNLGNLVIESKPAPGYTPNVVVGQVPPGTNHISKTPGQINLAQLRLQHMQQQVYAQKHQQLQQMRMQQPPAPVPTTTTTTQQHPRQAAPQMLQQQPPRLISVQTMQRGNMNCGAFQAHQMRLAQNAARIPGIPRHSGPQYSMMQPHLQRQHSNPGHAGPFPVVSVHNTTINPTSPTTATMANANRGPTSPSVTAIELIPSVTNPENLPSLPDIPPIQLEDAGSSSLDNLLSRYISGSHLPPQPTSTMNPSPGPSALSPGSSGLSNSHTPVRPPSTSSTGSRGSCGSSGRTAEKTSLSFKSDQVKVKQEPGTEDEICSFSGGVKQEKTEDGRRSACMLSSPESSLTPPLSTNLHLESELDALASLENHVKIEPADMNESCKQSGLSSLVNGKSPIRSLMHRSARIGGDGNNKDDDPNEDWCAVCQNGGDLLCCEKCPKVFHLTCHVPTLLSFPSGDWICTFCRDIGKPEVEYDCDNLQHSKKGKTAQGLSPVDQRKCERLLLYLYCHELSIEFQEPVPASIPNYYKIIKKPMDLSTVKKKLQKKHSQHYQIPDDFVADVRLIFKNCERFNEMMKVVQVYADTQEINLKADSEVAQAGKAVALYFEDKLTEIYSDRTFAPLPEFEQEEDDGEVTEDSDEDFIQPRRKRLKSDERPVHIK

[13] = molecular target: T2, SWI/SNF-related matrix-associated actin-dependent regulator of chromatin subfamily A member 4; assay: Binding affinity to His6-tagged human recombinant SMARCA4 bromodomain expressed in Escherichia coli BL21(DE3)-R3-pRARE2 cells assessed as change in melting temperature at 10 uM by SyproOrange dye based DSF thermal shift assay
[14] = molecular target: Histone acetyltransferase KAT2B (Homo sapiens) (UniProt Q92831); assay: Binding affinity to His6-tagged human recombinant PCAF bromodomain expressed in Escherichia coli BL21(DE3)-R3-pRARE2 cells assessed as change in melting temperature at 10 uM by SyproOrange dye based DSF thermal shift assay
[15] = molecular target: CREB-binding protein (Homo sapiens) (UniProt Q92793); assay: Binding affinity to His6-tagged human recombinant CREBBP bromodomain expressed in Escherichia coli BL21(DE3)-R3-pRARE2 cells assessed as change in melting temperature at 10 uM by SyproOrange dye based DSF thermal shift assay
[16] = molecular target: T2, SWI/SNF-related matrix-associated actin-dependent regulator of chromatin subfamily A member 4; assay: Inhibition of His6-tagged human recombinant SMARCA4 bromodomain expressed in Escherichia coli BL21(DE3)-R3-pRARE2 cells after 30 mins using biotinylated ligand by Alpha screen displacement assay

T1 sequence (Q86U86 whole entry): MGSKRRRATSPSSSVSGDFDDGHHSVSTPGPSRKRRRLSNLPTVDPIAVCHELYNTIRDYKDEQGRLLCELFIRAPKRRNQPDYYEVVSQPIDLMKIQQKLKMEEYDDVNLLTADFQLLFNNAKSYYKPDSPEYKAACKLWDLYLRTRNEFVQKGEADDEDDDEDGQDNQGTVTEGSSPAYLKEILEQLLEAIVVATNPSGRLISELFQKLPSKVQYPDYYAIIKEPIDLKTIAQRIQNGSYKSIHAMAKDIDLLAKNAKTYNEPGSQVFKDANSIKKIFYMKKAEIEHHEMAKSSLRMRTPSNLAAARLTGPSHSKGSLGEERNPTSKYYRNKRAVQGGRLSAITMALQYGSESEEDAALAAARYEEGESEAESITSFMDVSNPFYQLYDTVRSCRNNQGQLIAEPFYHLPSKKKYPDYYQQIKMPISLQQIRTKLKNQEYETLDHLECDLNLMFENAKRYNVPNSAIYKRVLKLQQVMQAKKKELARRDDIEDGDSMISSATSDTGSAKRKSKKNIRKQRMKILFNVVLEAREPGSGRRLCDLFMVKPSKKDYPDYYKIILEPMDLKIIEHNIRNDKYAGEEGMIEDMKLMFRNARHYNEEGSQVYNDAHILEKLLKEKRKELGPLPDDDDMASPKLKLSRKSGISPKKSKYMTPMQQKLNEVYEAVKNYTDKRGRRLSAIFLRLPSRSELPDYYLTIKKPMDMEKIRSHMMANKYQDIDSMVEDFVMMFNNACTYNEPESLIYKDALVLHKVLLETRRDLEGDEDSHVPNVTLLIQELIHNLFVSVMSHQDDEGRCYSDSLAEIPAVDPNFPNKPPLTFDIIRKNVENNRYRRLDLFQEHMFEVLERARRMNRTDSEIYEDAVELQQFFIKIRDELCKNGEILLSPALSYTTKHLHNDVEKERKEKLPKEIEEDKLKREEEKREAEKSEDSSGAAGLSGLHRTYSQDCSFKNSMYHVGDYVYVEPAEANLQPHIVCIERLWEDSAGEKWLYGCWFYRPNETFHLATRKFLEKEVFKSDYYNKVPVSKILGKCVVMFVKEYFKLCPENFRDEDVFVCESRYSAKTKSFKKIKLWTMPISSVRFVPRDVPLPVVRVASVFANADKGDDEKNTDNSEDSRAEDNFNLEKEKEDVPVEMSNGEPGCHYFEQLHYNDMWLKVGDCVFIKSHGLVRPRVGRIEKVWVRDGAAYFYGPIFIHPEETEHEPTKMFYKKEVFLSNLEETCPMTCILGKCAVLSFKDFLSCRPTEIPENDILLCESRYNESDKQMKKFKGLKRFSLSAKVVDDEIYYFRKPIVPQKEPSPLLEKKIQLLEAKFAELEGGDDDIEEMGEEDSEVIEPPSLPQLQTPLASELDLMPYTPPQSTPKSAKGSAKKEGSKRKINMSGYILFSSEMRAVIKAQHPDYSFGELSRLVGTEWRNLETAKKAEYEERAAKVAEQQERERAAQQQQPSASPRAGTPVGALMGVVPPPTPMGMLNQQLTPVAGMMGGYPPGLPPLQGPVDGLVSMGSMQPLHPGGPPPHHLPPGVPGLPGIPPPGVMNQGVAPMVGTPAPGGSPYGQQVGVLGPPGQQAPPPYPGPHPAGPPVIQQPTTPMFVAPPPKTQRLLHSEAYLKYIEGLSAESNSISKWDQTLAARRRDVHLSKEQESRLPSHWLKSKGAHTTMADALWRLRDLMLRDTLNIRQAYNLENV
Chain of SWI/SNF-related matrix-associated actin-dependent regulator of chromatin subfamily A member 2 (Homo sapiens) (P51531 whole entry, the tested form may be a part): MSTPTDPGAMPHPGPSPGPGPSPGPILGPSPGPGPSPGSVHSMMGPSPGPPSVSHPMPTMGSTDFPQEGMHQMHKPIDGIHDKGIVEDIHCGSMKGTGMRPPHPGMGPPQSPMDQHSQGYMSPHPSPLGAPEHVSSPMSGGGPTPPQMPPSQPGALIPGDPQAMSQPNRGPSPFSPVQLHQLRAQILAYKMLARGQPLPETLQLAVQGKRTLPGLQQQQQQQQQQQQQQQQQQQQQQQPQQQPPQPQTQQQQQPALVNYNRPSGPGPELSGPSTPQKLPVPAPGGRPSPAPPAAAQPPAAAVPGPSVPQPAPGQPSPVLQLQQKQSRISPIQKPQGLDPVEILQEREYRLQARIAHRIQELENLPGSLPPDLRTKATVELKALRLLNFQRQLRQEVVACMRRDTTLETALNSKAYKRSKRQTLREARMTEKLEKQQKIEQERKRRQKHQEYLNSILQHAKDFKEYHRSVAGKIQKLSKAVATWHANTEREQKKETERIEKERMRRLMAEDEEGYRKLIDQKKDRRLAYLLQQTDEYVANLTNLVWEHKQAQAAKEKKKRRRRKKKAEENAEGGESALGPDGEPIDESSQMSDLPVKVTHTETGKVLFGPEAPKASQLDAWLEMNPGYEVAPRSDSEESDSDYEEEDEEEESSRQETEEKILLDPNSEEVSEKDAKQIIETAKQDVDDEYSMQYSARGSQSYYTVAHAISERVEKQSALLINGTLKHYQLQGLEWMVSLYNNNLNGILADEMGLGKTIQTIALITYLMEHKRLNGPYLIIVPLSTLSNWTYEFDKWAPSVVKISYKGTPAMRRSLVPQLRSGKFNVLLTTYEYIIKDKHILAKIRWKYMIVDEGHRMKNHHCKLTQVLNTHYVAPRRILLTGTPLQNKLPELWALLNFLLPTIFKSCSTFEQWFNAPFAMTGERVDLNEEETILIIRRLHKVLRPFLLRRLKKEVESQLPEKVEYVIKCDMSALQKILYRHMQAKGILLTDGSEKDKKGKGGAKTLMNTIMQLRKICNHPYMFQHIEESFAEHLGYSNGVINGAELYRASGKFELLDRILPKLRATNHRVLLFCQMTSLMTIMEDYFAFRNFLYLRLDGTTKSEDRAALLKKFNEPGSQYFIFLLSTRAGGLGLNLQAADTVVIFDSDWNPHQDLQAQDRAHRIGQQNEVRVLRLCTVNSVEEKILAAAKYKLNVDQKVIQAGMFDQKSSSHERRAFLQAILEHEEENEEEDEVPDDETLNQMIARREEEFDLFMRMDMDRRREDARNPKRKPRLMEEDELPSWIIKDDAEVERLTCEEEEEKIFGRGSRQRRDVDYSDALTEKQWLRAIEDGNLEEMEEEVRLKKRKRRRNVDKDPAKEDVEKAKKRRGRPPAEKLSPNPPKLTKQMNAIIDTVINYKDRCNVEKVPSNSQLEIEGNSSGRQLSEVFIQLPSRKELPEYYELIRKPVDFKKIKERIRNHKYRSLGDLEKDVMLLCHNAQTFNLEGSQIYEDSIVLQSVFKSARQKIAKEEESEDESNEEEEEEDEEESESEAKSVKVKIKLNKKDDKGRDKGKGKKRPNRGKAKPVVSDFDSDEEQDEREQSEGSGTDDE
T2 sequence (P51532 whole entry): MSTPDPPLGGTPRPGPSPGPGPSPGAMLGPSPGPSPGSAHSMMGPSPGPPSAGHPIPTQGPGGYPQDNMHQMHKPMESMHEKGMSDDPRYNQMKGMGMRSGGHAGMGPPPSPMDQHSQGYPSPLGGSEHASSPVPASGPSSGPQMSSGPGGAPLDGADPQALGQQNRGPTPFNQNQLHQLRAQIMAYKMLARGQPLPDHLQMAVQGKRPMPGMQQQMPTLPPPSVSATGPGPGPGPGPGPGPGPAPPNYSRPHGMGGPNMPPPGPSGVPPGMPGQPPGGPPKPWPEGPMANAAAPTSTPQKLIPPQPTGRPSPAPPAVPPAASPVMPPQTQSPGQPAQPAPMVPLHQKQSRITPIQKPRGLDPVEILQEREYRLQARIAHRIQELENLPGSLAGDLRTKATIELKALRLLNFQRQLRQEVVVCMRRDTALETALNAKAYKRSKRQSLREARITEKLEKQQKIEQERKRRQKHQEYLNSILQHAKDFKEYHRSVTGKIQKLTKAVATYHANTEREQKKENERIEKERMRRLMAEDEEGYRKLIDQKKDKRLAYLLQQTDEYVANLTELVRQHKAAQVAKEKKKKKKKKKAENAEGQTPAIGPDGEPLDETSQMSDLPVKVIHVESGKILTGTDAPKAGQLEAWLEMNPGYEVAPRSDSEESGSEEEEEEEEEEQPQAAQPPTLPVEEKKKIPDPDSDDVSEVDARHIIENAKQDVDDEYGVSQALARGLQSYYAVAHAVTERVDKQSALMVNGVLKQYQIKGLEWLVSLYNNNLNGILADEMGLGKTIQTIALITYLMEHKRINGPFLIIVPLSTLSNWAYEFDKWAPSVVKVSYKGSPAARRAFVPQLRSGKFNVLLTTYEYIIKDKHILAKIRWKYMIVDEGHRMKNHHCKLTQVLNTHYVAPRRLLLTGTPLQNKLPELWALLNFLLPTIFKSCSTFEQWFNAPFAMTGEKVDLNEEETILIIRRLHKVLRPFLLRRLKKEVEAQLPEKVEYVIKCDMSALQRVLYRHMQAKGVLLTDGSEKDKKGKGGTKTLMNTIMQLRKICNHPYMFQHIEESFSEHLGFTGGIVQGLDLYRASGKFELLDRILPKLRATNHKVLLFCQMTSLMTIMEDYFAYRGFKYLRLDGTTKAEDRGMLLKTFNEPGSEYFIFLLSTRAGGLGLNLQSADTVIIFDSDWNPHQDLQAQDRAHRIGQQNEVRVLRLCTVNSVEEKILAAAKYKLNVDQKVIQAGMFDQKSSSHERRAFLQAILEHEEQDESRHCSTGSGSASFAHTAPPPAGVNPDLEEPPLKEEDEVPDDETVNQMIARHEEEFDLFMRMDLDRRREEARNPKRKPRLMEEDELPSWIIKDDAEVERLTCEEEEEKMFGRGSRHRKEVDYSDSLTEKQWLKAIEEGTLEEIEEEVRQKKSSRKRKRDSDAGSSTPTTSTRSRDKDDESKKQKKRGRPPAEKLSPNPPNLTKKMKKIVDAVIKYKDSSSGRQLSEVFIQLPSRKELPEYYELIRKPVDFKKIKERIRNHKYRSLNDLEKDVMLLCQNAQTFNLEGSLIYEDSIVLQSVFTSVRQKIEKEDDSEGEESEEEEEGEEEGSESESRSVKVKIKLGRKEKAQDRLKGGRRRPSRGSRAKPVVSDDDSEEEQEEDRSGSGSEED

SMILES | ΔTm [2] | ΔTm (Protein polybromo-1 [3]) | ΔTm (Protein polybromo-1 [6]) | ΔTm [7] | ΔTm (Protein polybromo-1 [9]) | ΔTm (Protein polybromo-1 [11]) | ΔTm [13] | other results
Cc1cccc2c1c(=O)nc1n2CC/C1=C\N(C)C | – | 1.4 °C | – | – | – | – | – | –
COc1cccc2c1c(=O)nc1n2CC/C1=C\N(C)C | – | -0.7 °C | – | – | – | – | – | –
CCN1CCN(/C=C2\CCn3c2nc(=O)c2c(Cl)cccc23)CC1 | 4.1 °C | 9.2 °C | 1.4 °C | 4.8 °C | 0.9 °C | 4 °C | 5.6 °C | solubility [8]: soluble; K (Protein polybromo-1 [10]): 7.05 ×10⁶ /M; Kd (Protein polybromo-1 [10]): 0.142 µM
CN(C)/C=C1\CCn2c1nc(=O)c1c(Br)cccc12 | – | 6.9 °C | – | – | – | – | – | –
CN(C)/C=C1\CCn2c1nc(=O)c1c(O)cccc12 | – | 3.4 °C | – | – | – | – | – | –
O=c1nc2n(c3cccc(Cl)c13)CC/C2=C\C1CCCCC1 | 1.6 °C | 6.6 °C | 0.4 °C | 2.5 °C | 0.7 °C | 2.7 °C | 2 °C | –
CCN(/C=C1\CCn2c1nc(=O)c1c(Cl)cccc12)CC | 2.5 °C | 7.3 °C | 0.2 °C | 3.6 °C | 0.6 °C | 2.9 °C | 2.8 °C | –
O=c1nc2n(c3cccc(Cl)c13)CC/C2=C\C1CCOCC1 | 2.3 °C | 8.2 °C | 1.6 °C | 3.4 °C | 1.2 °C | 3.4 °C | 2.8 °C | –
CN(C)/C=C1\CCn2c1nc(=O)c1c(Cl)cccc12 | 2.7 °C | 8.4 °C | 1 °C | 4.4 °C | 0.4 °C | 2.2 °C | 3.6 °C | Kd (Protein polybromo-1 [10]): 0.137 µM
CN(C)/C=C1\CCn2c1nc(=O)c1c(F)cccc12 | – | 1.4 °C | – | – | – | – | – | –
CCC(/C=C1\CCn2c1nc(=O)c1c(Cl)cccc12)CC | 2.5 °C | 10.2 °C | 3.1 °C | 3.5 °C | 2.7 °C | 7.1 °C | 2.9 °C | K (Protein polybromo-1 [10]): 5.88 ×10⁶ /M

More lines, main results first:

ΔTm [2] | ΔTm (Protein polybromo-1 [3]) | ΔTm (Protein polybromo-1 [6]) | ΔTm [7] | ΔTm (Protein polybromo-1 [9]) | ΔTm (Protein polybromo-1 [11]) | ΔTm [13] | SMILES | other results
4.2 °C | 10.2 °C | 1.3 °C | 6.6 °C | 1.1 °C | 4.3 °C | 5.4 °C | CN1CCN(/C=C2\CCn3c2nc(=O)c2c(Cl)cccc23)CC1 | inhibition [1]: Active; Kd [4]: 0.417 µM; Activity [5]: inactive; solubility [8]: soluble; K (Protein polybromo-1 [10]): 8.09 ×10⁶ /M; Activity [12]: inactive; Activity [14]: inactive; Activity [15]: inactive
– | 4.7 °C | – | – | – | – | – | O=c1nc2n(c3ccccc13)CC/C2=C\N1CCOCC1 | –
– | 3.7 °C | – | – | – | – | – | O=c1nc2n(c3ccccc13)CC/C2=C\c1ccoc1 | –
– | 5 °C | – | – | – | – | – | O=c1nc2n(c3ccccc13)CC/C2=C\N1CCCCC1 | IC50 [16]: 6.2 µM; Kd (Protein polybromo-1 [10]): 1.2 µM
4.3 °C | 9.8 °C | 0.8 °C | 6.3 °C | 0.9 °C | 4.7 °C | 5.3 °C | O=c1nc2n(c3cccc(Cl)c13)CC/C2=C\N1CCCCC1 | solubility [8]: soluble; Kd (Protein polybromo-1 [10]): 0.127 µM
– | 3.5 °C | – | – | – | – | – | CN1CCN(/C=C2\CCn3c2nc(=O)c2ccccc23)CC1 | IC50 [16]: 7.3 µM
– | 3.7 °C | – | – | – | – | – | CC(C)(C)OC(=O)N1CCN(/C=C2\CCn3c2nc(=O)c2ccccc23)CC1 | –
– | 4.3 °C | – | – | – | – | – | CCN1CCN(/C=C2\CCn3c2nc(=O)c2ccccc23)CC1 | IC50 [16]: 6.9 µM
– | 2.5 °C | – | – | – | – | – | CN1CCCN(/C=C2\CCn3c2nc(=O)c2ccccc23)CC1 | IC50 [16]: 22 µM
– | 5.8 °C | – | – | – | – | – | O=c1nc2n(c3ccccc13)CC/C2=C\N1CCCC1 | IC50 [16]: 9.6 µM; Kd (Protein polybromo-1 [10]): 2.3 µM
1.7 °C | 7.4 °C | 0.4 °C | 2.8 °C | 0.3 °C | 1.9 °C | 2.7 °C | O=c1nc2n(c3cccc(Cl)c13)CC/C2=C\N1CCOCC1 | –
– | 1.1 °C | – | – | – | – | – | CC(C)N(/C=C1\CCn2c1nc(=O)c1ccccc12)C(C)C | –
1.3 °C | 6.9 °C | 0.2 °C | 2.6 °C | 0.4 °C | 1.2 °C | 1.4 °C | O=c1nc2n(c3cccc(Cl)c13)CC/C2=C\N1CCCC1 | –
– | 4.4 °C | – | – | – | – | – | CCCN(/C=C1\CCn2c1nc(=O)c1ccccc12)CCC | –
– | 4.2 °C | – | – | – | – | – | CN(C)/C=C1\CCn2c1nc(=O)c1ccccc12 | IC50 [16]: 11 µM
– | 4.3 °C | – | – | – | – | – | CCN(/C=C1\CCn2c1nc(=O)c1ccccc12)CC | –
1 °C | 6 °C | 0.7 °C | 1.4 °C | 0.8 °C | 1.4 °C | 1.1 °C | CN1CCC(/C=C2\CCn3c2nc(=O)c2c(Cl)cccc23)CC1 | –
